This note sets out measurements from patent publication US9289400B2, “D3 dopamine receptor agonists to treat dyskinesia in parkinson's disease” (priority 2010, dated 2016).

Where “and” joins values, the source holds several entries; their conditions need not be identical. Equal entries are not always repeated. Entries after “also recorded” stand apart in the source; their conditions may differ. Marks after values point to notes of the source that are not given here.

The term EC50 denotes the concentration that produces a half-maximal response. Higher therefore signals weaker potency.

Data set [1] has as its target T1, D2S dopamine receptor (Homo sapiens (Human), UniProt P14416). Kind of data set: Adenylyl cyclase inhibition (forskolin-induced cAMP) in AtT-20 cells stably expressing D2S. The data set is classed as cell-based. The note with it: for EC50: AtT-20 cells; for Adenylyl cyclase inhibition: agonist type: versus full agonist quinpirole. On the procedure:
In the second functional assay, the ability of D2-like dopamine receptors to inhibit adenylyl cyclase activity is assessed. The ability of the lead compound to dose-dependently decrease forskolin-induced cAMP levels is measured. The IC50 values for each receptor subtype is determined by fitting the data points using the Hill equation. Previously, the EC50 and IC50 values for dopamine and quinpirole has been determined in these cell lines in both functional assays.
(§1) AtT-20 mouse pituitary cells were grown in Ham's F10 medium with 5% FBS, 10% heat-inactivated horse serum, 2 mM glutamine and 50 μg/ml gentamicin (Invitrogen, Carlsbad, Calif.). AtT-20 cells stabling expressing the human D2S, D2L, D3, and D4.2 and receptor were maintained in the above F10 culture media supplemented with 500 μg/ml G418 (Invitrogen). For electrophysiological characterization, cells were plated onto glass coverslips coated with 40 μg/ml poly L-lysine (Sigma-Aldrich). The generation and characterization of the AtT-20 cells stably expressing various human dopamine receptors have been previously reported (Kuzhikandathil & Oxford, 2000, J. Gen. Physiol. 115:697-706; Kuzhikandathil et al., 1998, Mol. Cell. Neurosci. 12:390-402; Kuzhikandathil & Bartoszyk, 2006, Neuropharm. 51:873-884; Westrich & Kuzhikandathil, 2007, Biochim. Biophys. Acta-MCR 1773:1747-1758; Kuzhikandathil et al., 2004, Mol. Cell. Neurosci. 26:144-155; Westrich et al., 2010, Biochem. Pharmacol. 79:897-907).
Cyclic AMP (cAMP) levels were assessed using the cAMP Biotrak Enzymeimmunoassay (EIA) kit (GE Healthcare, Piscataway, N.J., USA) as described previously (Kuzhikandathil & Bartoszyk, 2006, Neuropharm. 51:873-884). The cAMP levels in each treated sample were assayed in triplicate and the entire experiment repeated three independent times.
(§2) To compare the functional effects of the new class of D3 receptor agonists, PBZI (Table 2) and ES609 (Table 3) were tested on AtT-20 cells stably expressing human D3, D2S, D2L or D4.2. Functional efficacy was determined by assessing the ability of PBZI and ES609 to inhibit adenylyl cyclase or activate GIRK channels coupled to these “D2-like” dopamine receptors. The EC50 values of PBZI and ES609 for inhibiting adenylyl cyclase and activating GIRK channels were in the range of 0.2 nM to 30 nM for D3 receptors.

Data set [2] deals with T1, D2S dopamine receptor. Kind of data set: GIRK channel activation, whole cell voltage clamp, AtT-20 cells stably expressing D2S. The format is cell-based. The conditions noted are these: for GIRK channel activation: agonist type: versus full agonist quinpirole. The method, then:
The activation of the GIRK channels was measured electrophysiologically using whole cell voltage clamp recording (Kuzhikandathil et al., 2004, Mol. Cell. Neurosci. 26:144-155). The GIRK channel responses elicited with new ligands were compared to quinpirole, a classical full agonist of D2, D3 and D4 dopamine receptors. The adenylyl cyclase inhibition was determined using a commercially available ELISA assay (Westrich & Kuzhikandathil, 2007, Biochim. Biophys. Acta-Mol. Cell. Res. 1773:1747-1758).
In the first assay, whole cell voltage clamp recording is used to measure GIRK response to increasing concentrations of the lead compound (0.01 nM to 3,000 nM dose range). The EC50 values for each receptor subtype is determined by fitting the data points using the Hill equation.
as §1
Agonist-activated currents were measured by the whole-cell patch clamp technique in voltage clamp and current clamp mode as described previously (Kuzhikandathil & Oxford, 2000, J. Gen. Physiol. 115:697-706; Kuzhikandathil et al., 1998, Mol. Cell. Neurosci. 12:390-402; Kuzhikandathil & Bartoszyk, 2006, Neuropharm. 51:873-884; Westrich & Kuzhikandathil, 2007, Biochim. Biophys. Acta-MCR 1773:1747-1758; Kuzhikandathil et al., 2004, Mol. Cell. Neurosci. 26:144-155; Westrich et al., 2010, Biochem. Pharmacol. 79:897-907). Drug solutions were delivered to cells via a multi-barreled micropipette array. The current responses were normalized to the cell capacitance, to account for variation in cell size.
as §2

The next data set addresses D3 dopamine receptor (Homo sapiens (Human), UniProt P35462). Kind of data set: D3 receptor tolerance and SRT: GIRK response to repeated agonist application in AtT-20 cells. The data set is classed as cell-based. The note with it: AtT-20 cells expressing human D3, 100-300 nM agonist, repeated ~60 s applications. The method, then: To determine whether a compound abolishes the D3 receptor tolerance and SRT, the D3 receptor-activated GIRK response to two consecutive treatments of the lead compound is measured. […] Drug solutions were delivered to cells via a multi-barreled micropipette array. The current responses were normalized to the cell capacitance, to account for variation in cell size.
To identify agonists that might modulate D3 receptor tolerance and SRT properties, ten distinct agonists were screened for their ability to induce tolerance and SRT, using the D3 receptor-GIRK channel signaling pathway as an assay.

Data set [3] deals with intrastriatal 6-OHDA lesioned rats. Kind of data set: Levodopa-induced dyskinesia (AIMs score) in intrastriatal 6-OHDA lesioned rats. The data set is classed as in vivo, rat. The conditions noted are these: PBZI 17 mg/kg sc; for effect on levodopa-induced dyskinesia (AIMs score): given 10 minutes before 6 mg/kg levodopa, ES609 20 mg/kg. The method, then: In particular, rats in which unilateral intrastriatal lesion is induced by injection of 6-OHDA (7 μg) at three different sites in the ventrolateral striatum are used. The coordinates for the three injection sites are, in mm: injection site 1: AP: +1.0; ML: −3.0; DV: −5.0; injection site 2: AP: −0.1; ML: −3.7; DV: −5.0; injection site 3: AP: −1.2; ML: −4.5; DV: −5.0. Anterior-posterior (AP) and mediolateral (ML) coordinates are from bregma. The dorso-ventral (DV) coordinates are from dura. The toothbar location is 0.
Seven and half weeks after the lesion, chronic levodopa treatment (6 mg/kg, single dose per day given with 15 mg/kg benserazide) is initiated. Stepping test and AIMs scores are determined on day 1, 8, 10, 17 and 24 after the initiation of chronic levodopa treatment. […] AIMs are scored using a rating scale based on frequency and severity of the dyskinetic symptoms. It should be noted that the rank order of the various AIMs components in terms of frequency and severity in the rat model is: limb>orolingual=axial>>locomotor. This lesion model has been used to test the effect of PBZI on LID (Example 3).
FIG. 13A illustrates the effect of control, PD128907 (a tolerance inducing D2/D3 agonist) and PBZI (a non tolerance inducing D3/D3 agonist) on the total AIMs score (includes locomotor, axial, limb and orolingual) over time of a day 17 (chronic L-DOPA phase) lesioned animal.

The test system is the same in data set [4]. Put plainly: Forelimb stepping test in intrastriatal 6-OHDA lesioned rats. The note with it: for motor deficits in a rat PD model: FIG. 18.

T1 sequence (P14416 other isoform, or with tags, fused parts or gaps): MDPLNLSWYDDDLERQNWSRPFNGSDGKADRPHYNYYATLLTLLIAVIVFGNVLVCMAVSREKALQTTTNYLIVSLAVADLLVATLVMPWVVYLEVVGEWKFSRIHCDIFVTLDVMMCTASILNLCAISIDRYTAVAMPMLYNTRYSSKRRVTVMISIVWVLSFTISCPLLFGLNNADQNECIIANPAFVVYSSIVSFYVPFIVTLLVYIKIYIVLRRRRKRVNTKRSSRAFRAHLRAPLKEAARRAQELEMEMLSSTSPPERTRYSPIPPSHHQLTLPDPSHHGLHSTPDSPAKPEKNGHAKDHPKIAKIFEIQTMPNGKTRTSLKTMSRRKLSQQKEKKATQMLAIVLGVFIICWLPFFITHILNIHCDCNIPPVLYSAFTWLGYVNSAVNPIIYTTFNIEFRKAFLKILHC
Sequence of D3 dopamine receptor (P35462 other isoform, or with tags, fused parts or gaps): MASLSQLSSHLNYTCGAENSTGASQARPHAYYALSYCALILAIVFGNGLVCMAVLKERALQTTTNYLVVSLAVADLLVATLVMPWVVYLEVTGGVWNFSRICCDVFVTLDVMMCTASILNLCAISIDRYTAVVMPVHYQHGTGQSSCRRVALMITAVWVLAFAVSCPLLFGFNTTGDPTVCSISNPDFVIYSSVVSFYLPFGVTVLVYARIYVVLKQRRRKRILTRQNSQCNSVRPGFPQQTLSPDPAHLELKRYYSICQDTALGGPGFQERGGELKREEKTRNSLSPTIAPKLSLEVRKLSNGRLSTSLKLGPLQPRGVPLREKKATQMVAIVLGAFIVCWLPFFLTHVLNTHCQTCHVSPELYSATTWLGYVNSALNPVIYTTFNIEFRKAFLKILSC

With `CC(N)CCc1ccccc1Cl` (stereo not drawn) [ES609], the “Adenylyl cyclase inhibition Ratio of ES609 to quinpirole response (at 300 nM)” value on D2S dopamine receptor [1] (300 nM) was 0.29*. Further, the EC50 at D2S dopamine receptor [1] is 0.0024 µM. Further, the “Adenylyl cyclase inhibition: agonist type” value on D2S dopamine receptor [1] is on record as “partial agonists”; at D2S dopamine receptor [1] (listed as ES0609), “Partial”. Moreover, the “GIRK current compared with quinpirole-induced current” value on D2S dopamine receptor [2] (100 nM) was “significantly less than the quinpirole-induced current”. The “GIRK channel activation Ratio of ES609 to quinpirole response (at 300 nM)” value on D2S dopamine receptor [2] (300 nM) is recorded as 0.30*. Further, the “GIRK channel activation: agonist type” value at D2S dopamine receptor [2] was “partial agonists”; at D2S dopamine receptor [2] (listed as ES0609), “Partial”. Moreover, the “D3 receptor tolerance and SRT properties (agonist-induced GIRK response)” value was “did not induce tolerance and SRT; also recorded: did not show tolerance and SRT” on D3 dopamine receptor; “also abolished D3 receptor tolerance and SRT properties” at D3 dopamine receptor (listed as ES 609). In data set [3], the “effect on levodopa-induced dyskinesia (AIMs score)” value is “improve levodopa-induced dyskinesia”. For the same compound, in data set [4], the “motor deficits in a rat PD model” value was “improve motor deficits”.

Take `CCCN1CC[C@@H]2c3cc(O)ccc3CC[C@@H]21` [PBZI, (3aS,9bR)-3-propyl-1,2,3a,4,5,9b-hexahydrobenzo[e]indol-8-ol]: the “Adenylyl cyclase inhibition Ratio of PBZI to quinpirole response (at 300 nM)” value at D2S dopamine receptor [1] (300 nM) is given as 0.29*. The EC50 on D2S dopamine receptor [1] is 0.14 µM and > 0.15 µM; at D2S dopamine receptor [2] (AtT-20 cells), 0.053 µM. Besides, the “Adenylyl cyclase inhibition: agonist type” value at D2S dopamine receptor [1] is reported as “partial agonists”. Besides, on D2S dopamine receptor [2] (300 nM), the “GIRK channel activation Ratio of PBZI to quinpirole response (at 300 nM)” value is recorded as 0.48*. At D2S dopamine receptor [2], the “GIRK channel activation: agonist type” value is “partial agonists”. Besides, the “D3 receptor tolerance and SRT properties (agonist-induced GIRK response)” value is “does not elicit tolerance and SRT properties; also recorded: abolished both tolerance and SRT properties; also recorded: did not induce tolerance; also recorded: does not induce tolerance and SRT; also recorded: did not show either tolerance or SRT properties; also recorded: completely abolished the receptors' tolerance and SRT properties” on D3 dopamine receptor; “abolished the tolerance property” on D3 dopamine receptor (listed as cis-80H-PBZI). Also, in data set [3] (PD128907 0.1 mg/kg sc), the “dyskinesia induced by the compound itself, before levodopa administration” value is on record as “did not induce dyskinesia”. Besides, the “effect on levodopa-induced dyskinesia (AIMs score)” value in data set [3] was “reduces AIM scores; also recorded: significantly reduced the AIM score; also recorded: delayed the onset of levodopa induced dyskinesia; also recorded: delayed and reduced the dyskinesia induced by levodopa; also recorded: improve levodopa-induced dyskinesia”. For the same compound, in data set [4], the “motor deficits in a rat PD model” value is “improve motor deficits”. For the same compound, the “effect on beneficial effect of levodopa on bradykinesia/akinesia (stepping test)” value in data set [4] (co-administration of PBZI and levodopa) is given as “did not attenuate the beneficial effect of levodopa”.
